Assay results reported in patent US20250281497A1, “FUSED AMINO PYRIMIDINE COMPOUNDS FOR TREATMENT OF SEIZURE DISORDERS” (Ovid Therapeutics Inc., priority 2024, published 2025).
pEC50: −log10 of the molar value.

Columns and labels:
NKCC1 = target: T1, NKCC1 (Homo sapiens, UniProt P55011); test: Tl+ assay, HEK-293 cells expressing NKCC1; format: cell-based; conditions: read-out: concentration at which effects on NKCC1 were seen (EC50 chart FIG. 1G)
T1 construct: expressed in transfected cells; host or cells: HEK-293
T1 sequence (P55011 1-1212): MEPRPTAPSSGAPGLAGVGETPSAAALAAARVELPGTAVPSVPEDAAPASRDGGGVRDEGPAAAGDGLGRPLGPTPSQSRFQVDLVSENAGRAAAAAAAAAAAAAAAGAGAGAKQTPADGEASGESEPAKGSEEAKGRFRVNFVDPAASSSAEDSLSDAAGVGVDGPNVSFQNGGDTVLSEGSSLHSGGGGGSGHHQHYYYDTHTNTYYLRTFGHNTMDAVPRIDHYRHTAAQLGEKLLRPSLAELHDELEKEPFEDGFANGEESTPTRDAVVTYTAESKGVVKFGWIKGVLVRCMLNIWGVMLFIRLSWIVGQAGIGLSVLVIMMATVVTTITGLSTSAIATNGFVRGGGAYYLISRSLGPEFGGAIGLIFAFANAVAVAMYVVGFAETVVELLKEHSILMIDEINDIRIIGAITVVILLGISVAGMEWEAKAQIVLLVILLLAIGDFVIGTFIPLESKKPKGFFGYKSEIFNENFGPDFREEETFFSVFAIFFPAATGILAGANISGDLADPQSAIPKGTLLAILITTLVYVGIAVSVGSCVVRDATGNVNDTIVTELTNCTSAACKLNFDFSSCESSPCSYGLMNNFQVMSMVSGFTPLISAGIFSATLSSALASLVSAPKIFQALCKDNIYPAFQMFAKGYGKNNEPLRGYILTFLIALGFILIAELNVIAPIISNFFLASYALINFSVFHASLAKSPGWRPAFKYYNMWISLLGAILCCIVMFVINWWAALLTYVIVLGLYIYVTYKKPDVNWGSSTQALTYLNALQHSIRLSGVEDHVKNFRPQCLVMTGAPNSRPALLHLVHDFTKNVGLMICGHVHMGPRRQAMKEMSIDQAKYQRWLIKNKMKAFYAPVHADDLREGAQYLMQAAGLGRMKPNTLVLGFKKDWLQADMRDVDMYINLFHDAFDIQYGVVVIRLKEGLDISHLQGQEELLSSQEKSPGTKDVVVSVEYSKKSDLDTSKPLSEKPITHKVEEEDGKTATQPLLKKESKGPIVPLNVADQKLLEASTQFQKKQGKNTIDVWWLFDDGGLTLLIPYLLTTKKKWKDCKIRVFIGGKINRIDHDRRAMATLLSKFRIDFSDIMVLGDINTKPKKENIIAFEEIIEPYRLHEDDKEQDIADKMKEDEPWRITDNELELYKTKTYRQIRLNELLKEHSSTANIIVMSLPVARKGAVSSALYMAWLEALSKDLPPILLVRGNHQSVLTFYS
Experimental: (§1) FLIPR TI Flux assay. HEK-293 cells were washed with HBSS, and then incubated with loading buffer containing TI sensitive fluorescent dye (https://www.moleculardevices.com), 20 μM bumetanide 20 μM ouabain and 2.5 mM probenecid for 1 h at room temperature (RT) under control conditions or with drugs in the dark using a FlexStation 3 microplate reader (Molecular Devices) and imaged […] for 30 min. Stimulus buffer was added containing 5 mM K^+/0.5 mM Tl^+ and cells were imaged every 1.5 over a 190 second time course The initial rate Tl^+ uptake (Relative Fluorescence Units (RFU) per second) was determined following addition of the stimulus buffer as outlined previously (Conway et at, 2017, supra) (Lee et at, 2022, supra).
(§2) Several studies have shown that the activity and plasma membrane accumulation of KCC2 is potentiated via phosphorylation of S940, a process mediated by the activity of protein kinase C and protein phosphatase 1 (Lee et al., 2011, supra; Lee et al., J Biol Chem 282, 29777-29784 (2007); Moore et al., Proc. Natl. Acad. Sci. U.S.A. 115, 10166-10171 (2018); Moore et al., Trends Neurosci. 40, 555-571 (2017); Silayeva et al., Proc. Natl. Acad. Sci. U.S.A. 112, 3523-3528 (2015)). […] Compared to KCC2, effects on KCC3, KCC4, and NKCC1 were only seen at concentrations more than 35-fold that of KCC2 (>100 μM) (FIG. 1G).

KCC3 = target: T2, KCC3 (Homo sapiens, UniProt Q9UHW9); test: Tl+ assay, HEK-293 cells expressing KCC3; format: cell-based; conditions: read-out: concentration at which effects on KCC3 were seen (EC50 chart FIG. 1G)
T2 construct: expressed in transfected cells; host or cells: HEK-293
T2 sequence (Q9UHW9 1-1150): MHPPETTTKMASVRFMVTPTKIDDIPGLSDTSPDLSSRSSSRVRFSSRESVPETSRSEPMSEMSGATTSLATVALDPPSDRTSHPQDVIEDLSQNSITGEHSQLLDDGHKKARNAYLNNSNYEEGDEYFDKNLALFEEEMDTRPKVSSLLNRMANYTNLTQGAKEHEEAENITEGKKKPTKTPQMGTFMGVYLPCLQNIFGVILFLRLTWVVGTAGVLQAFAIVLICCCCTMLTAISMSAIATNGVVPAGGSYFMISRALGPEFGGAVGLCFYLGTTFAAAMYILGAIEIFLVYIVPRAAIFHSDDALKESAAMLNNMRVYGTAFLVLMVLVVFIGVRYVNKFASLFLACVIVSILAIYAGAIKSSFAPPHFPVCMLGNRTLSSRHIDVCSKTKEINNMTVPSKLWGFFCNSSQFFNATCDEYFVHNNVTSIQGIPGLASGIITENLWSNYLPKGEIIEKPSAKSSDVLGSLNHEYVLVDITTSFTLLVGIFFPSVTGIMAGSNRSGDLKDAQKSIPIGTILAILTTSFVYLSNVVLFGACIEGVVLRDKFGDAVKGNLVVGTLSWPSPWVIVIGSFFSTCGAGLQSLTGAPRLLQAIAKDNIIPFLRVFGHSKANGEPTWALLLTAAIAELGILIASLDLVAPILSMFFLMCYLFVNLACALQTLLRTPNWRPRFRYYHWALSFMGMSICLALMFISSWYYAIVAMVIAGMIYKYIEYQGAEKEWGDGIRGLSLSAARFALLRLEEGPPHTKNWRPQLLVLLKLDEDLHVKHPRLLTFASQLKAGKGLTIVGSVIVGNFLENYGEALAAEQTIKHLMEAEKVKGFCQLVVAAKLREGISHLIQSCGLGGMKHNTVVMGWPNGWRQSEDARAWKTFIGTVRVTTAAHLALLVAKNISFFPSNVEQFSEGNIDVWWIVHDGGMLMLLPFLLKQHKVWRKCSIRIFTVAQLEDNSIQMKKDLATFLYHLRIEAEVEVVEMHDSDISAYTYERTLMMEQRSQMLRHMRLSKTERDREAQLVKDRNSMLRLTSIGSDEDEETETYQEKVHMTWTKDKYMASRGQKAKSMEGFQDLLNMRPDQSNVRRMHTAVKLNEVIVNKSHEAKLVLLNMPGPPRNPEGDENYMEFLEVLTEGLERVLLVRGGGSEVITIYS
Experimental: as §1, §2

SMILES: C[C@@H]1CN(c2nc3c(c(Nc4ccc(C5CCCCC5)cc4)n2)COC3)CCO1 [Compound A, (R)—N-(4-cyclohexylphenyl)-2-(2-methylmorpholino)-5,7-dihydrofuro[3,4-d]pyrimidin-4-amine]
- pEC50 (NKCC1): < 4.00
- pEC50 (KCC3): < 4.00
